Results reported in ChEMBL document CHEMBL1201862, “PubChem BioAssay data set” (2004).
Values belong to the compound of their own block, whether it stands above or below them. Activity calls are given as the source filed them.

Legend:
[1] = target: Intestinal-type alkaline phosphatase (Mus musculus, UniProt P24822); assay: PubChem AID 488785; type: functional
[2] = target: Heat shock 70 kDa protein 1A (Homo sapiens, UniProt P0DMV8); assay: inhibition of Hsp70 binding activity – biochemical, fluorescence polarization, SAR follow-up (AID 1072)
[3] = target: T1, Tyrosine-protein phosphatase non-receptor type 7 (Homo sapiens, UniProt P35236); type: functional
T1 sequence (P35236 whole entry): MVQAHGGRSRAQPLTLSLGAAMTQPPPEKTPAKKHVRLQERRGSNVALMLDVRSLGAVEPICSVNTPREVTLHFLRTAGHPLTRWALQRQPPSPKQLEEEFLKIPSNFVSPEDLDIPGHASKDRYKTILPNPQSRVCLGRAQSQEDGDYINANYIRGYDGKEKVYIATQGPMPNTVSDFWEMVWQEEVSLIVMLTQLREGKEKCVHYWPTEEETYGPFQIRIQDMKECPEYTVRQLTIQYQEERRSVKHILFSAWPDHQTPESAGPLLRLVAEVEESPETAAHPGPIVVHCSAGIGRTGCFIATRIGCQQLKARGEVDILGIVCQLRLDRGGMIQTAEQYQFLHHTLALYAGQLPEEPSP

[4] = target: T2, Dual specificity protein phosphatase 6 (Rattus norvegicus, UniProt Q64346); assay: inhibition of rat DUSP6 enzyme activity – biochemical, in vitro, primary screen (AID 425)
T2 sequence (Q64346 whole entry): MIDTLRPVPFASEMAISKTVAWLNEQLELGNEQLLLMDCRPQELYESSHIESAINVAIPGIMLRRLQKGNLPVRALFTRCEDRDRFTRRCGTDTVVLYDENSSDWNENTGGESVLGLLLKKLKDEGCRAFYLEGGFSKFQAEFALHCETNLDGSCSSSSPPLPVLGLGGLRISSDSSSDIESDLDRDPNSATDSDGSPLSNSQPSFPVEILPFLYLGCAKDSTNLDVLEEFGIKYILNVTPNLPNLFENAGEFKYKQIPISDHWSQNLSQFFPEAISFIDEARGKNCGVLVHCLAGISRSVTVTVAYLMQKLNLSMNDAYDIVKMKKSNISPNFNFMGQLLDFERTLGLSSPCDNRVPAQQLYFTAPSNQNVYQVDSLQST

[5] = target: T3, Ubiquitin-conjugating enzyme E2 N (Homo sapiens, UniProt P61088); type: functional
T3 sequence (P61088 whole entry): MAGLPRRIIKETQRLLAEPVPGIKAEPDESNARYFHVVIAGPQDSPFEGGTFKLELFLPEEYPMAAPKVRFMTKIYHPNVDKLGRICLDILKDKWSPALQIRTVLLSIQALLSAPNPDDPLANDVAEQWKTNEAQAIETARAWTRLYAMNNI

[6] = target: Voltage-gated N-type calcium channel alpha-1B subunit/Amyloid beta A4 precursor protein-binding family A member 1 (Homo sapiens, UniProt Q00975+Q02410); type: protein assay
Voltage-gated N-type calcium channel alpha-1B subunit/Amyloid beta A4 precursor protein-binding family A member 1, sequence (Q00975 whole entry): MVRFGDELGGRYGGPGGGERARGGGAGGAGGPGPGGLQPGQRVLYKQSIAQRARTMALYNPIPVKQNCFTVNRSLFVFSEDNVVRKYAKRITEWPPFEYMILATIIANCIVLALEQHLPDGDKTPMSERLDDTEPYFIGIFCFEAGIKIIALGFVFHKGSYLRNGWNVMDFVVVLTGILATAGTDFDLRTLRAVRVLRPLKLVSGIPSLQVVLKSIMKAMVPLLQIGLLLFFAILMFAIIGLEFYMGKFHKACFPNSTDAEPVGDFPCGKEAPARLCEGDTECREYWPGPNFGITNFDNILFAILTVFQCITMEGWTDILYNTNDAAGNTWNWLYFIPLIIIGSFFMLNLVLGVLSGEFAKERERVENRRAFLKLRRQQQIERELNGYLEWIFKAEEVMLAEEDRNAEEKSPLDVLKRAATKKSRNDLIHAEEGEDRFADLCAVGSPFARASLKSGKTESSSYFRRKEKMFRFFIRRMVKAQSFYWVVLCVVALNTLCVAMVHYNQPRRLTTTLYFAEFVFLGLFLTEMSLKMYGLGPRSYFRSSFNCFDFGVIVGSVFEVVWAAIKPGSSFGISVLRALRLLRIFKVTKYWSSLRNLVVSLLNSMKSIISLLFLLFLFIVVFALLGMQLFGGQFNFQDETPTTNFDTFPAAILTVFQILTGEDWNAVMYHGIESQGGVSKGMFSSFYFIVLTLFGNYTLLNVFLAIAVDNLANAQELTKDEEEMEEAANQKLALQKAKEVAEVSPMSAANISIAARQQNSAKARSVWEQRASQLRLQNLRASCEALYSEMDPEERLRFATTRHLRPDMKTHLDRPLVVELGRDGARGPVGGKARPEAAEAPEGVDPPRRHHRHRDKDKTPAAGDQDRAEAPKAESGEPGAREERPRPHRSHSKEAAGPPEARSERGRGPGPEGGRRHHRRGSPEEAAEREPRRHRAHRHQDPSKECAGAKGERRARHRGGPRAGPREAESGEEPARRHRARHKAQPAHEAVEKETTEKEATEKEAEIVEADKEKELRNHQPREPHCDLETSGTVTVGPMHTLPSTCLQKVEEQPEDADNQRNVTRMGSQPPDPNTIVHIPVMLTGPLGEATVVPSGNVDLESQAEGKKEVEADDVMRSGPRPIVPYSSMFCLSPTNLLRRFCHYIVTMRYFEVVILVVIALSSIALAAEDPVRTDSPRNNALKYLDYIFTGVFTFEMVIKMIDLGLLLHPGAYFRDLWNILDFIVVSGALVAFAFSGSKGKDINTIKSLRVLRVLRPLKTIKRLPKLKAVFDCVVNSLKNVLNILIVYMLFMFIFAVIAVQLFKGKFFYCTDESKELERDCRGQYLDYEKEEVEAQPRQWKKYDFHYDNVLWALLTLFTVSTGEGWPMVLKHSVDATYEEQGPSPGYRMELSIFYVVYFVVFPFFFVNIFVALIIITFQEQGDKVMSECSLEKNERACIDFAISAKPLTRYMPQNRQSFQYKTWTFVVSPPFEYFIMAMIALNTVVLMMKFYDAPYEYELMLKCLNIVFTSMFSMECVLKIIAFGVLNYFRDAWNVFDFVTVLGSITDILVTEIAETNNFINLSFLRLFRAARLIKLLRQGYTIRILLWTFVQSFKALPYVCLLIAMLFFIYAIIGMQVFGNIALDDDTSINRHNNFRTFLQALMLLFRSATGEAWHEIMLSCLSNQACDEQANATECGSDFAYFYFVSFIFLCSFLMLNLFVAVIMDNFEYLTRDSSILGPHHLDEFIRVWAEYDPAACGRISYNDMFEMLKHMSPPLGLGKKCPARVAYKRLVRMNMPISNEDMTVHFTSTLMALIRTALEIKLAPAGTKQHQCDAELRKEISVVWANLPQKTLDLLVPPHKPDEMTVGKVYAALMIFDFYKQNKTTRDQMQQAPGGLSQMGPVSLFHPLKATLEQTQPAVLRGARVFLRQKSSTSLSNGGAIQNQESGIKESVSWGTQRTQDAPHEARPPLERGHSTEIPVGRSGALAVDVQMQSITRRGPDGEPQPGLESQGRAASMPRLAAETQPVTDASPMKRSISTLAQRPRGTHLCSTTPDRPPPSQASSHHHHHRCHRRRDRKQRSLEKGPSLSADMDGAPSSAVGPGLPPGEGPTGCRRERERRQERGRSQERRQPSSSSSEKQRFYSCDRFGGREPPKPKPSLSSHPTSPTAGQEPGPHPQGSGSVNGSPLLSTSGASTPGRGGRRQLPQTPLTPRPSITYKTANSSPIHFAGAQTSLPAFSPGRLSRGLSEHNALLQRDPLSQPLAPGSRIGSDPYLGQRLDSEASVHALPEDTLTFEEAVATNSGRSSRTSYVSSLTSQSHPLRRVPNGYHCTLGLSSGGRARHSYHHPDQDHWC
Voltage-gated N-type calcium channel alpha-1B subunit/Amyloid beta A4 precursor protein-binding family A member 1, sequence (Q02410 whole entry): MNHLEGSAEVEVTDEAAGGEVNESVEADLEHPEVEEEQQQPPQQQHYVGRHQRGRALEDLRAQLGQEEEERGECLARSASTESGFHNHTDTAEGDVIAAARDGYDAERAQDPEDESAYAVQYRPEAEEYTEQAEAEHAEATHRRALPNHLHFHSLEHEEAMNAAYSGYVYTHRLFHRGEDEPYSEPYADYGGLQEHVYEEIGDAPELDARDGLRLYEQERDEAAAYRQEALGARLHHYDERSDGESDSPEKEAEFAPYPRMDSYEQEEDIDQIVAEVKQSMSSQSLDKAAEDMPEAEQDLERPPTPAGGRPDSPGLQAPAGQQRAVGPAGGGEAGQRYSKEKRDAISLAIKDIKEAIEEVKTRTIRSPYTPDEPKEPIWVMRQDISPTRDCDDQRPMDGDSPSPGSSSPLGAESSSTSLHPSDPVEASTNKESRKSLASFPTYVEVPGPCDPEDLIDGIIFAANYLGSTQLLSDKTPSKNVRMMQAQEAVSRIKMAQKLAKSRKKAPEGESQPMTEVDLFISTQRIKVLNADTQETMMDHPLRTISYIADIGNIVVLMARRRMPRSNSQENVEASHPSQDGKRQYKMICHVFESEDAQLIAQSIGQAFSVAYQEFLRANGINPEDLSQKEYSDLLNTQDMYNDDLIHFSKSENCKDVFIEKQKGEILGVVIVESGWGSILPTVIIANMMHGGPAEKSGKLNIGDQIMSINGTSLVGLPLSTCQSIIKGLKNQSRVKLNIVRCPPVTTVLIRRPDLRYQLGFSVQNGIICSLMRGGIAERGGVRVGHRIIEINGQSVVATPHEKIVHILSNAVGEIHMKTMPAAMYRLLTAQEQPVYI

[7] = target: Serine/threonine-protein kinase PAK 4 (Homo sapiens, UniProt O96013); type: functional;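 further: value obtained within a kinome profiling panel in which PAK4 was one of the panel members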
[8] = target: Glycogen synthase kinase-3 beta (Homo sapiens, UniProt P49841); type: functional;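 further: value comes from a broad kinome profiling panel, with GSK3B as the panel member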
[9] = target: Platelet-derived growth factor receptor beta (Homo sapiens, UniProt P09619); type: functional;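 further: value comes from a kinome panel, with PDGFRB tested as one panel member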
[10] = DRD fibroblast viability loss – cell-based, non-viral oncogenic, luminescence, dose response (AID 1934); type: functional; conditions: Homo sapiens
[11] = target: Beta-galactosidase (Escherichia coli, UniProt Q8VNN2); assay: detection-enzyme interference by beta-gal modulators – biochemical, E. coli enzyme, set 3, artefact control for CCR6 antagonist project, dose response (AID 504712); type: functional
[12] = tested on: BJ; assay: BJ-TERT fibroblast viability loss – cell-based, RAS-independent, luminescence, dose response (AID 1933); type: functional; conditions: Homo sapiens
[13] = tested on: BJ; assay: cells; type: functional, cell-based; conditions: Homo sapiens
[14] = target: T4, Heat shock factor protein 1 (Mus musculus, UniProt P38532); assay: decrease of HSF1-responsive luciferase luminescence – cell-based, NIH3T3, dose retest, confirmation (AID 2382); type: functional;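 further: NIH3T3 fibroblasts with HSF1-driven luciferase reporter stressed by proteasome inhibitor MG132; luminescence from HSF1-driven luciferase expression after 8 hours of MG132 stress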
T4 sequence (P38532 whole entry): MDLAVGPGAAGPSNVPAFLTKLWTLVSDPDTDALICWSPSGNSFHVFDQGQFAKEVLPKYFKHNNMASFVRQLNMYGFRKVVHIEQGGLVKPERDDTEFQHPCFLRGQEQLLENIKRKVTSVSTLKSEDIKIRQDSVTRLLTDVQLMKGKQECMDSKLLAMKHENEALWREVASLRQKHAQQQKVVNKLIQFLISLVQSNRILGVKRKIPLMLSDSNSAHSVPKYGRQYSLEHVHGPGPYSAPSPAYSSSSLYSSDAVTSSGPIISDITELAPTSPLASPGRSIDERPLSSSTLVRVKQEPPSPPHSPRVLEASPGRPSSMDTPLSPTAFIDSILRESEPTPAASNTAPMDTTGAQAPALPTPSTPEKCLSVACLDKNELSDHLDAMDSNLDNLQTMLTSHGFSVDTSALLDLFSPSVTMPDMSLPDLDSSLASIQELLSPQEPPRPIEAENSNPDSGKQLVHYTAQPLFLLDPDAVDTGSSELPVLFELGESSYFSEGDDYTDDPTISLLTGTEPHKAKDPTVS

[15] = target: Serine/threonine-protein kinase 17A (Homo sapiens, UniProt Q9UEE5); type: functional
Serine/threonine-protein kinase 17A, sequence (Q9UEE5 whole entry): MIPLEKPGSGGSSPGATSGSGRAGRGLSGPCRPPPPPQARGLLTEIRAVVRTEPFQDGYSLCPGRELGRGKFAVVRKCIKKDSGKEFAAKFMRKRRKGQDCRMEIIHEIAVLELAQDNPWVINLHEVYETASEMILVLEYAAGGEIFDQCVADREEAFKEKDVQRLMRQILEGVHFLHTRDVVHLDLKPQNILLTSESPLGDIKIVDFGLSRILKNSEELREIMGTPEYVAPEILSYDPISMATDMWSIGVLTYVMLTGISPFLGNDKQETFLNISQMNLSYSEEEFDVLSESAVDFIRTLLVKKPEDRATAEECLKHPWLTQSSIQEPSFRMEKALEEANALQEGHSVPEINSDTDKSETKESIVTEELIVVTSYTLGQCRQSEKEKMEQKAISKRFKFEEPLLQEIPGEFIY

[16] = target: Calcium/calmodulin-dependent protein kinase type 1 (Homo sapiens, UniProt Q14012); type: functional
Calcium/calmodulin-dependent protein kinase type 1, sequence (Q14012 whole entry): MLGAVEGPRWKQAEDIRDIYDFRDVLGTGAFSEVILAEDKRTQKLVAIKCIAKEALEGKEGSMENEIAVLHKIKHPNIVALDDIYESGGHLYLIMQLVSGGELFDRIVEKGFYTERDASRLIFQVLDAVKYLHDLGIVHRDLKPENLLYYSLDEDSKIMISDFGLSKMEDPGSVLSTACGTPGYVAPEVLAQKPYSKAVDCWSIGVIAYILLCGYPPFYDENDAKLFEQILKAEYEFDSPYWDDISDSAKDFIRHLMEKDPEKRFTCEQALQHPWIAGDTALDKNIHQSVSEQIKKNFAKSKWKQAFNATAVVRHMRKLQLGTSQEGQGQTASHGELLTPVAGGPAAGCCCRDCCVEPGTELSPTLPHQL

[17] = target: Homeodomain-interacting protein kinase 4 (Homo sapiens, UniProt Q8NE63); type: functional
[18] = target: MAP kinase-activated protein kinase 5 (Homo sapiens, UniProt Q8IW41); type: functional;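 further: measured as one member of a kinome panel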
[19] = target: Tyrosine-protein kinase Srms (Homo sapiens, UniProt Q9H3Y6); type: functional;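 further: SRMS measured as one member of a kinome-wide kinase profiling panel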
Tyrosine-protein kinase Srms, sequence (Q9H3Y6 whole entry): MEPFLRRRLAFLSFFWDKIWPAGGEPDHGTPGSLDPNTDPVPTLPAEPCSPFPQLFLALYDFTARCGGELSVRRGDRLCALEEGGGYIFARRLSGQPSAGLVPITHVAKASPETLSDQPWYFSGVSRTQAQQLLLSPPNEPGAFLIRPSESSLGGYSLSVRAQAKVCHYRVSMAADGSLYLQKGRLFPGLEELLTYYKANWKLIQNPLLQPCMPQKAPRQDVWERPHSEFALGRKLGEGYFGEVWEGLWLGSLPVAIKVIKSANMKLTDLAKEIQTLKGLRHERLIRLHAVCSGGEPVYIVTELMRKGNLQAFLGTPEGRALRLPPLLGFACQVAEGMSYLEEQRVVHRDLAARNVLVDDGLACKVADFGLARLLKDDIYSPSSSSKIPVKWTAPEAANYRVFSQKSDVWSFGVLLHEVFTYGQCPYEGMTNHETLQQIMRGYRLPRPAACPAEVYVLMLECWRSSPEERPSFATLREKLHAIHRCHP

[20] = target: Calcium/calmodulin-dependent protein kinase type II subunit beta (Homo sapiens, UniProt Q13554); type: functional
[21] = target: 3-phosphoinositide-dependent protein kinase 1 (Homo sapiens, UniProt O15530); type: functional;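 further: value comes from the Navigating the Kinome panel, PDPK1 member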
3-phosphoinositide-dependent protein kinase 1, sequence (O15530 whole entry): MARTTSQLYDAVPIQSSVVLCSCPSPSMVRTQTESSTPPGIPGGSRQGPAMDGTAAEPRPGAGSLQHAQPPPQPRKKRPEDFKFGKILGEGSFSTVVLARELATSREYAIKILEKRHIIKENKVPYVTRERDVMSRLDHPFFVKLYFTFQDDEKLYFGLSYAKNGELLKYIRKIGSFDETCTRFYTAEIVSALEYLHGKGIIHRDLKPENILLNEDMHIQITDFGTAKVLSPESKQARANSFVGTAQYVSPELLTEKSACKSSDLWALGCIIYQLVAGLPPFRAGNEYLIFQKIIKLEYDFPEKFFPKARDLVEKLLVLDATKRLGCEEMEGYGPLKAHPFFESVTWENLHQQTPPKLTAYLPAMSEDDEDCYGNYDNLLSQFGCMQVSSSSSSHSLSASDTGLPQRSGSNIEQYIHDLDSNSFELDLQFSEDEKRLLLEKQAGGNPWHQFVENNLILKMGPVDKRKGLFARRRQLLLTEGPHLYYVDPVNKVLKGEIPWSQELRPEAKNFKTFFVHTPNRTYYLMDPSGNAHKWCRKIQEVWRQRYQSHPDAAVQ

[22] = target: Tyrosine-protein kinase Blk (Homo sapiens, UniProt P51451); type: functional;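 further: obtained as one member of a kinome-wide kinase assay panel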

Compound: O=C1/C(=C\c2cccc(O)c2O)SC(=S)N1Cc1ccccc1
IC50 [1]: 3.23 µM (active)

Compound: COc1cccc2c1NC(C(=O)O)C1CC=CC21 (configuration not stated)
IC50 [2]: 6.26 µM (active) | IC50 [3]: 11.3 µM (active) | IC50 [4]: > 10 µM (not active) | IC50 [5]: > 20 µM (inactive) | IC50 [6]: 13.2 µM (active)

Compound: COC(=O)c1c(N)nc2ccccn12
Ki [9]: > 79.4 µM (inactive)

Compound: CCc1ccc(S(=O)(=O)/N=C2\C=C(Nc3ccc(O)cc3)C(=O)c3ccccc32)cc1
EC50 [10]: 3.33 µM (active) | IC50 [11]: 41.3 µM (inactive) | EC50 [12]: 1.51 µM (active) | EC50 [13]: 2.96 µM (active) | EC50 [14]: 1.16 µM (active)

Other lines, results leading:

Ki [7]: > 5.01 µM (inactive) | Ki [8]: 0.398 µM (active)
Compound: COc1c(-c2nc3ccccc3[nH]2)c(O)cc2oc(C)cc(=O)c12

Ki [15]: > 3.98 µM (inactive) | Ki [16]: 6.31 µM (active) | Ki [17]: 0.0398 µM (active) | Ki [18]: > 1.58 µM (inactive) | Ki [19]: 1.58 µM (active) | Ki [20]: 3.98 µM (active) | Ki [21]: > 3.98 µM (inactive) | Ki [22]: 0.316 µM (active)
Compound: Cc1ccc(F)c(NC(=O)Nc2ccc(-c3cccc4[nH]nc(N)c34)cc2)c1 [LINIFANIB]
